Laboratory results from patent US20220225910A1, “Modulating Electron Transfer Kinetics in E-DNA-type Sensors” (The Regents of the University of California, priority 2019, published 2022).
Where two headings read alike, the source gives them in different places. {C6SH} = six-carbon thiol for deposition on gold; {MB} = methylene blue redox reporter

Legend:
[1] = test system: E-AB sensor; assay: In vivo control injections, sensor specificity; set-up: species or system Sprague-Dawley rats; settings: camptothecin E-AB sensor in live rat, KDM
Source text: FIGS. 6A, 6B, and 6C. FIG. 6A depicts signals collected at high (120 Hz) and low (10 Hz) frequencies by a sensor of the invention. […] FIG. 6B: taking the difference (KDM) between the normalized high (120 Hz) and low (10 Hz) frequency signals produces a stable baseline.

[2] = In vivo pharmacokinetic measurement with indwelling E-AB sensor in jugular vein; settings: rat; for distribution rate (a): intravenous
Procedure: In-vivo measurements. All in vivo measurements were performed using a three-electrode setup in which the counter electrodes were made of platinum wire and the reference electrodes were a silver wire coated with a silver chloride film as described above. The measurements carried out in vivo were recorded using a handheld potentiostat from CH Instruments (Model 1242 B). Square Wave Voltammetry (SWV) was performed using a potential window of −0.1 to −0.45 V, a potential step of 0.001 V and 0.05 V amplitude
For in vivo measurements a 30 min sensor baseline was established before the drug infusion. A 3 mL syringe filled with the target drug was connected to the sensor-free catheter (placed in the jugular opposite that in which the sensor is emplaced) and placed in a motorized syringe pump. […] After drug infusion, recordings were taken for up to 1 hour before the next infusion. The real-time plotting and analysis of voltammetric data were carried out with the help of a script written in Python.
Animals. In vivo measurements were performed in male and female Sprague-Dawley rats (4-5 months old) weighing between 300 and 500 g. All animals were pair housed in a standard light cycle room (08:00 on, 20:00 off) and allowed ad libitum access to food and water. For in vivo measurements rats were induced under 5% isoflurane anesthesia in a Plexiglas anesthesia chamber. The rats were then maintained on 2-3% isoflurane gas for the duration of the experiment. A small incision was made above each vein, then each vein was isolated. A small hole was cut into each vein with spring-loaded microscissors. The silastic catheter inserted into the left jugular vein was constructed with a bent steel cannula with a screw-type connector and silastic tubing (11 cm, i.d. 0.64 mm, o.d. 1.19 mm). […]
where A and B are amplitudes, and […] for distribution and elimination, respectively. […] The area under the curve (AUC) was calculated using the parameters A, B, α and β, because integrating the equation 5 from 0 to infinity, it holds: […]
The clearance (ClT) was calculated by the equation: […]

[3] = Square wave voltammetry frequency vs signal change (%); assay type: binding; settings: aptamer alone on sensor
Source text: Square wave voltammetry frequency vs signal change (%) plot. […] Then the estimated signal change (%) was plotted in function of the relative square wave frequency.

[4] = E-AB sensor titration curves in working buffer (square wave voltammetry); assay type: binding; settings: simple buffered solution
Procedure: Electrode functionalization. […] This was then dissolved in “assembling buffer” (10 mM Na2HPO4 with 1 M NaCl and 1 mM MgCl2 at pH 7.3) at a final concentration of 500 nM. The electrochemically cleaned gold electrodes were then immersed in 200 μL of this solution for 1 hour in the dark. Following this the electrode surface was rinsed with distilled water and incubated overnight at 4° C. in assembling buffer containing 5 mM 6-mercaptohexanol, followed by a further rinse with distilled water before use. […] These were then dissolved in buffer (10 mM Na2HPO4 with 1 M NaCl and 1 mM MgCl2 at pH 7.3) using different ratio of the two DNA probes. The total oligonucleotide concentration was kept constant at 500 nM to maintain a constant DNA probes packing density. The electrochemically cleaned gold electrodes were then immersed in 200 μL of this solution composed of two DNA probes for 1 hour in the dark. Following this step, the electrode surface was rinsed with distilled water and incubated overnight at 4° C. in assembling buffer containing 5 mM 6-mercaptohexanol, followed by a further rinse with distilled water before use. In-vitro measurements. Electrochemical measurements were performed at room temperature using a CH[…] potentiostat with a CHI684 Multiplexer (CH Instruments, Austin, Tex.) and a standard three-electrode cell containing a platinum counter electrode and a Ag/AgCl (3 M KCl) reference electrode. […] Titration curves. […] Using the values estimated from the previous fitting procedure the raw signal current was converted in signal change % (C%) using the following equation: […]

[5] = E-AB sensor binding curves in flowing undiluted whole blood
Procedure: Titration curves. Experimental titration curves were performed in 10 mL of working buffer (137 mM NaCl, KCl 2.7 mM, Na2HPO4 10 mM, KH2PO4 1.8 mM at pH 7.3) using three E-AB sensors modified with the oligonucleotide probe and using a SWV frequency of 10 and 120 Hz.
The binding curves performed in whole blood were conducted following the previous described experimental approach but using a closed-loop system with a continuous flow of whole blood (total volume of 20 mL at 1 mL/s) through a circulator pump.

[6] = Solution binding of the unmodified aptamer, using the intrinsic fluorescence of irinotecan; settings: unmodified aptamer free in solution, read-out: dissociation constant
[7] = Sensor equilibration time; assay type: binding; settings: in buffer, clinically relevant concentrations, 500 Hz
Procedure: Sensor equilibration time. The sensor's equilibration time was determined using the above experimental approach and interrogating the sensor every 5 s in working buffer and using a SWV frequency of 500 Hz. […] The observed signal change was fitted to a single exponential decay to obtain the equilibration time constant of the sensor.

[8] = unstructured 10-base strand; cited from earlier work

Row | Compound | dependence of gain on square-wave frequency [3] | signal gain relative to other variants [4] | E-AB sensing performance in whole blood [5] | further results
1 | O=c1[nH]cc(F)c(=O)[nH]1 [5-fluorouracil] | – | – | – | sensor response to control injection [1]: do not produce any measurable sensor response
2 | CCc1c2c(nc3ccc(OC(=O)N4CCC(N5CCCCC5)CC4)cc13)-c1cc3c(c(=O)n1C2)COC(=O)[C@]3(O)CC [irinotecan] | – | – | – | variation in CMAX or the rate of the distribution phase between rats ([2]; both, Sprague-Dawley, in vivo, 20 mg/kg): 10-20%; distribution rate (a) ([2]; 10 mg kg (first value)): 0.58 ± 0.07 min; distribution rate (a) ([2]; 20 mg kg (second value)): 0.48 min
3 | CA16: camptothecin aptamer, only the G-quadruplex binding pocket: 5′-GGGTGGGTGGGTTGGG-3′ (chemistry not given here) | only a weak function of square-wave frequency | greatest signal gain | supported high-gain E-AB sensing | –
4 | CA28: truncated camptothecin aptamer: 5′-CGGACTTGGGTGGGTGGGTTGGGGTACG-3′ (DNA CGGACTTGGGTGGGTGGGTTGGGGTACG; listed as DNA, chemistry not fully specified) | only a weak function of square-wave frequency | greatest signal gain | supported high-gain E-AB sensing | –
5 | CA32: truncated camptothecin aptamer: 5′-TCCGGACTTGGGTGGGTGGGTTGGGGTACGGT-3′ (DNA TCCGGACTTGGGTGGGTGGGTTGGGGTACGGT; listed as DNA, chemistry not fully specified) | only a weak function of square-wave frequency | greatest signal gain | supported high-gain E-AB sensing | –
6 | CA40: 40-base truncation of the known camptothecin-binding DNA aptamer; G-quadruplex flanked by a 12-base-pair stem (DNA ACGCTCCGGACTTGGGTGGGTGGGTTGGGGTACGGTGCGT; DNA, 5' {C6SH}, 3' {MB}, backbone not given here; further chemistry not fully specified) | – | – | – | Kd ([6]; listed as parent aptamer): 475 nM; Kd [6]: ~475 nM; association and dissociation kinetics, time constants [7]: < 5 s; gain [5]: about 15%
7 | CA40_2MM: camptothecin aptamer, two mismatches: 5′-ACGCTCTGGACTTGGGTGGGTGGGTTGGGGTACGGTGTGT-3′ (DNA ACGCTCTGGACTTGGGTGGGTGGGTTGGGGTACGGTGTGT; listed as DNA, chemistry not fully specified) | – | greatest signal gain | – | –
8 | SEQ ID NO: 8: secondary moiety: unstructured 10-base strand, random sequence of adenines and thymines, reporter-modified (DNA ATTATTTTTT; reporter-modified, reporter and position not given here) | – | – | – | rate of electron transfer [8]: 80 per second
